Experimental data reported in PubChem BioAssay (NCI).
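Results reflect a 48-hour exposure of cells in 96-well plates to compound at five concentrations. TGI is the concentration that stops growth completely.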

Legend:
Assay in all cases: NCI-60 cell line screen, 48 h
[1] = system: SF-295 CNS
[2] = system: NCI/ADR-RES ovarian
[3] = system: OVCAR-5 ovarian
[4] = system: HCT-15 colon
[5] = system: T-47D breast
[6] = system: HOP-62 NSCLC
[7] = system: PC-3 prostate
[8] = system: TK-10 renal
[9] = system: UO-31 renal
[10] = system: A498 renal
[11] = system: KM12 colon
[12] = system: NCI-H522 lung
[13] = system: SK-MEL-2 melanoma
[14] = system: MDA-MB-435
[15] = system: HL-60(TB) leukemia
[16] = system: MCF7 breast
[17] = system: NCI-H23 lung
[18] = system: UACC-257 melanoma
[19] = system: DU-145 prostate
[20] = system: HCC-2998 colon
[21] = system: SN12C renal
[22] = system: SK-MEL-5 melanoma
[23] = system: EKVX NSCLC
[24] = system: SK-OV-3 ovarian
[25] = system: NCI-H460 lung
[26] = system: M14 melanoma
[27] = system: CCRF-CEM leukemia
[28] = system: HS 578T breast
[29] = system: SW-620 colon
[30] = system: SR leukemia
[31] = system: HCT-116 colon
[32] = system: NCI-H226 lung
[33] = system: HT29 colon
[34] = system: UACC-62 melanoma
[35] = system: SNB-75 CNS
[36] = system: MDA-MB-231 breast
[37] = system: SF-539 CNS
[38] = system: U251 CNS
[39] = system: MOLT-4 leukemia
[40] = system: OVCAR-3 ovarian
[41] = system: 786-0 renal
[42] = system: BT-549 breast
[43] = system: COLO 205 colon
[44] = system: OVCAR-8 ovarian
[45] = system: RPMI-8226 leukemia
[46] = system: HOP-92 NSCLC
[47] = system: ACHN renal
[48] = system: RXF 393 renal
[49] = system: CAKI-1 renal
[50] = system: IGROV1 ovarian
[51] = system: SF-268 CNS
[52] = system: K-562 leukemia
[53] = system: MDA-N
[54] = system: LOX IMVI melanoma
[55] = system: A549 NSCLC
[56] = system: SK-MEL-28 melanoma
[57] = system: SNB-19 CNS

Measured: TGI

CCCCCCCCCCCCc1ccsc1-c1ccc(-c2ccc(-c3sccc3CCCCCCCCCCCC)s2)s1
> 100 µM: all assays above
